In one experiment the test system is miR126. The experiment is described as follows: miRNA 126 expression in AML and CML cell lines by Q-RT-PCR. Format: cell-based, human. As to conditions: 500 nM, 24 hours. As for the experimental part: FIGS. 4A-4G are bar graphs showing miRNA 126 expression in AML and CML cell lines. Cells were cultured with miR126-inhibitor-Cy3 (Cy3-200 nM0, human CD45 (Ab-200 nM) or Transferrin (TF-200 nM)-conjugated NP containing antagomiR-126-Cy3, CpG-miR126 inhibitor-Cy3 (CpG-Cy3-200 nM and 500 nM) for 24 hours, then miR126 and RNU44 (control) expression in these cells was analyzed by q-RT PCR. The miR126 expression levels were normalized to RNU44 and calculated by using the comparative 2^−ΔΔct method. FIG. 4A is a bar graph showing miRNA 126 expression in the K562 CML cell line. FIG. 4B is a bar graph showing miRNA 126 expression in the KG1A AML cell line. FIG. 4C is a bar graph showing miRNA 126 expression in the MV4-11 AML cell line. FIG. 4D is a bar graph showing the miRNA 126 expression in the Molm13 AML cell line. FIG. 4E is a bar graph showing the miRNA 126 expression in the NB4 AML cell line. […]
miRNA 126 expression in AML and CML lines was evaluated. CML (K562) (FIG. 4A) and AML cell lines (KG1A, MV4-11, Molm13, NB4, OCI and HL60) (FIGS. 4B-4G) were cultured with anti-miR126 inhibitor-Cy3 (Cy3 ctrl, 200 nM), human CD45 (Ab-NP, 200 nM) or Transferrin (TF-NP, 200 nM)-conjugated NP containing anti-miR-126-Cy3, or CpG-anti-miR126 inhibitor-Cy3 (CpG-200 nM and 500 nM) for 24 hours, then miR126 and RNU44 (control) expression in these cells were analyzed by Q-RT-PCR.

For the next experiment, the system named is miR-126. The experiment is described as follows: miR-126 expression in K562 and MV4-11 cells with miR-126 inhibitors or mimics. Format: cell-based. The settings on record: 500 nM, 24 hours. How it is done: FIGS. 26A-26E. Effective knockdown of miR-126 with miR-126 inhibitors conjugated with CpG, GpC and PS, and effective over-expression with miR-126 mimics in K562 and MV4-11 cells. K562 and MV4-11 cells were treated with miR-126 inhibitors conjugated with CpG, GpC, PS (FIGS. 26A-26B) or miR-126 mimics (615, 616 and 617) (FIGS. 26C-26D) (500 nM) for 24 hours, and miR-126 expression was measured in these cells. […] FIG. 26E) Tabulation of sequence set forth herein.
Effective knockdown of miR-126 with miR-126 inhibitors conjugated with CpG, GpC and PS, and effective over-expression with miR-126 mimics in K562 and MV4-11 cells. K562 and MV4-11 cells were treated with miR-126 inhibitors conjugated with CpG, GpC, PS (FIGS. 26A-26B) or miR-126 mimics (615, 616 and 617) (FIGS. 26C-26D) (500 nM) for 24 hours, and miR-126 expression was measured in these cells.

For experiment [1], the system named is normal and CML CD34+CD38− primitive progenitors. The experiment is described as follows: Cell cycling of CD34+CD38- cells by EDU/DAPi staining. Format: cell-based, human. As to conditions: 500 nM, 72 hours. How it is done: FIGS. 9A-9D are a series of cell sorting plots showing increased cell cycle in CD34+CD38− cells after knockdown of […]. Normal (NL; FIGS. 9A-9B) and CML human CD34+CD38− cells (FIGS. 9C-9D) were sorted and then cultured with 500 nm CpG-miR126 inh-Cy3 or CpG-SCR control for 72 hours, and then cell cycling was analyzed by EDU/DAPi staining.
CML CD34+, CD34+CD38+ committed and CD34+CD38− primitive progenitors were cultured with CpG-scramble RNA (500 nM), CpG-anti-miR126 inhibitor (500 nM), CpG-scramble RNA (500 nM)+Nilotinib (NIL, 5 uM), and CpG-anti-miR126 inhibitor (500 nM)+NIL (5 uM) for 72 hours and then cell cycling and apoptosis were analyzed by EDU/DAPi and Annexin V/DAPi staining.

Consider “5′ G*G*T GCA TCG ATG CAGG*G*G* G*G (SEQ ID NO: 1) xxxxx mCmGmC mAmUmU mAmUmU mAmCmU mCmAmC mGmGmU mAmCmG mA (SEQ ID NO: 17) 3′ [CpG-anti-miR126]”, for which the “downregulation of miRNA126” value in the experiment with miR126 (all tested human AML and CML cell lines) is reported as “most effective downregulation”. In addition, the “reduction of target miRNA expression” value in the experiment on miR126 (HL60, K562, MV4-11, MOLM13 and OCI cells) is “more than 50%”. Further, the “miR-126 expression (knockdown by inhibitors)” value in the experiment on miR-126 was “very effective in reducing miR-126”. In addition, the cell cycling entry in experiment [1] is “Increased cell cycling”.

The values above are taken from patent US11591596B2, “Compounds and compositions including phosphorothioated oligodeoxynucleotide, and methods of use thereof” (City of Hope, priority 2015, dated 2023).
